Data: ChEMBL document CHEMBL1201862, “PubChem BioAssay data set” (2004)
Active and inactive are the calls of the source.

How the values were obtained:
HeLa = assay: ATP-based viability loss in HeLa cells – cell-based, CellTiter-Glo luminescence, cherry-pick samples, cytotoxicity control for MITF activator project, dose response (AID 540259); type: functional; settings: Homo sapiens
Cytochrome P450 2C9 = Cytochrome P450 2C9 (Homo sapiens, UniProt P11712); settings: Potency
[1] = biological target: Induced myeloid leukemia cell differentiation protein Mcl-1 (Homo sapiens, UniProt Q07820); type: functional
Chain of Induced myeloid leukemia cell differentiation protein Mcl-1 (Q07820 whole entry): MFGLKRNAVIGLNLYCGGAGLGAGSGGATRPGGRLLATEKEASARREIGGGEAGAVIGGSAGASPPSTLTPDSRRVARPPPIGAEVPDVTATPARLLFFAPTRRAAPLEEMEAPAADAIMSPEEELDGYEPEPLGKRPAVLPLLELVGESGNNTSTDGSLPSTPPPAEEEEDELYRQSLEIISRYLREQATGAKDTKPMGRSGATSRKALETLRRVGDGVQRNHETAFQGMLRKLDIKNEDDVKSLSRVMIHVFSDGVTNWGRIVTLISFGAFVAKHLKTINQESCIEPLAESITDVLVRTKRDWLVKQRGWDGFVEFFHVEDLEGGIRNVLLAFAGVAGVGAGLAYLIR

[2] = system: Streptococcus sp. 'group A'; assay: Streptococcus pyogenes SK(-)GAS viability under kanamycin – luminescence, BacTiterGlo, confirmation, counter-screen for streptokinase expression inhibitor project, dose response (AID 1900); type: functional, organism-based
Streptokinase A = biological target: T1, Streptokinase A (Streptococcus pyogenes serotype M1, UniProt P10520); assay: viability-normalized secreted streptokinase activity reduction – plasminogen activation absorbance, OD405, dose response (AID 1914); type: functional, Streptococcus pyogenes M1 GAS;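 further: secreted streptokinase activity via plasminogen activation per viability signal from cell pellet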
T1 sequence (P10520 whole entry): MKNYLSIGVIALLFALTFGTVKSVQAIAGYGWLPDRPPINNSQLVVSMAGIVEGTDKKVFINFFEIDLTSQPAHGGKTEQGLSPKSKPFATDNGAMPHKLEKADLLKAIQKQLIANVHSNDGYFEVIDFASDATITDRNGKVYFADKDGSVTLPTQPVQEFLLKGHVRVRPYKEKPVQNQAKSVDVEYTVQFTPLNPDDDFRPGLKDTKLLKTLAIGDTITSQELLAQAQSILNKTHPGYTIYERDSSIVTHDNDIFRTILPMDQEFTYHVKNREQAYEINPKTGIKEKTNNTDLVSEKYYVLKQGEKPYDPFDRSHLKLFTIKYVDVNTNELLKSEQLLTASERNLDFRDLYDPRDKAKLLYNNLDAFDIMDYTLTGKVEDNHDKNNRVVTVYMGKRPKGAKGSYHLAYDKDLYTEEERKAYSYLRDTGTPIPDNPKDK

[3] = HPDE-C7 pancreatic duct cell viability loss – fluorescence, HTS (AID 430); type: functional, cell-based; settings: Homo sapiens
[4] = viability loss of HPDE-C7K cells – cell-based, fluorescence, HTS, primary screen (AID 431); type: functional; settings: Homo sapiens
[5] = viability of PTEN-deleted HCT116 cells – cell-based, HCT116 PTEN knockout, dose response (AID 1047); type: functional;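 further: HCT116 colon tumor cells with PTEN knocked out; cells exposed to compound for 60 hours before readout; potency for loss of cell viability measured by luminescence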
[6] = viability of HCT116 lacking mutant beta-catenin – cell-based, human colon tumor, dose response (AID 1045); type: functional;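 further: HCT116 colon tumor cells with beta catenin knocked out; cells exposed to compound for 60 hours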
Streptococcus = assay: GAS UMAA2166 growth inhibition – luminescence, BacTiterGlo, counter-screen for streptokinase expression inhibitor project, dose response (AID 1915); type: functional, organism-based;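 further: potency for reduction of bacterial viability or growth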
Caspase-3 = biological target: T2, Caspase-3 (Homo sapiens, UniProt P42574); type: functional;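 further: Dose-response selectivity test against caspase-3 for candidate inhibitors of sentrin-specific proteases (SENPs)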
T2 sequence (P42574 whole entry): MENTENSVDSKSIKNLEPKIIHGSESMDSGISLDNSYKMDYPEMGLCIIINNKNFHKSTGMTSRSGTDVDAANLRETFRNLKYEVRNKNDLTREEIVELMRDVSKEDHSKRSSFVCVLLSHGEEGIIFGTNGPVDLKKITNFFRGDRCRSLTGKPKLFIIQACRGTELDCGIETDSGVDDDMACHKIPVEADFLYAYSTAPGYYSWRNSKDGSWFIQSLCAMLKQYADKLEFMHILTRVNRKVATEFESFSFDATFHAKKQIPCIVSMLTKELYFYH

[7] = biological target: T3, Sentrin-specific protease 7 (Homo sapiens, UniProt Q9BQF6); type: functional;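 further: Luminescence-based dose-response confirmation of ultra-high-throughput screening hits, measuring inhibition of SENP7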
T3 sequence (Q9BQF6 whole entry): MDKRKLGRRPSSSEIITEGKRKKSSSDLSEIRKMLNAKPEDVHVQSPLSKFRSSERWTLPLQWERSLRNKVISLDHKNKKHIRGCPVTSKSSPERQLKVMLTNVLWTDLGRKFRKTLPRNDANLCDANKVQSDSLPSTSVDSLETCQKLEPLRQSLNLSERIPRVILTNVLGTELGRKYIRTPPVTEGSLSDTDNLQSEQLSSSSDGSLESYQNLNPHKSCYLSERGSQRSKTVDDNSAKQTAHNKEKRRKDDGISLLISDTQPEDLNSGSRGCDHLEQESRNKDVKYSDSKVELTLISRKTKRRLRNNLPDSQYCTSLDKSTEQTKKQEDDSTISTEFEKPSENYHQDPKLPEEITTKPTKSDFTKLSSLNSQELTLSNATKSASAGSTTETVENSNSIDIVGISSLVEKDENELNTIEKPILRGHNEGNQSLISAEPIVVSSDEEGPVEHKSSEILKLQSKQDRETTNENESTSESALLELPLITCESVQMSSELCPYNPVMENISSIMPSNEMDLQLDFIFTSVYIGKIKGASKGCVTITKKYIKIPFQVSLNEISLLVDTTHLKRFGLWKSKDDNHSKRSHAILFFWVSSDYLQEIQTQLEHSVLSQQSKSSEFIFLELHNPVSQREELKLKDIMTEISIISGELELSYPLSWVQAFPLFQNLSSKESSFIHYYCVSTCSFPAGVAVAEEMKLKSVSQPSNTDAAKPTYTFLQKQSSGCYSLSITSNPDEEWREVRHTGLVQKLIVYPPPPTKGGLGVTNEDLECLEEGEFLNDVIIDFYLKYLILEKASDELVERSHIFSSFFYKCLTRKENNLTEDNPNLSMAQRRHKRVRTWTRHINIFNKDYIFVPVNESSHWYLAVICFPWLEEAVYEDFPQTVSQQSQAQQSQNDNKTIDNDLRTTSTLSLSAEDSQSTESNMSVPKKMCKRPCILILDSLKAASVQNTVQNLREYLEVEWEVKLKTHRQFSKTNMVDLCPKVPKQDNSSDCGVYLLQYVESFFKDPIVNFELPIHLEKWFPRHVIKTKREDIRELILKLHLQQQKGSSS

[8] = biological target: T4, Sentrin-specific protease 6 (Homo sapiens, UniProt Q9GZR1); type: functional;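 further: Luminescence-based dose-response confirmatory assay of SENP6 inhibition, following up an ultra-high-throughput screen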
T4 sequence (Q9GZR1 whole entry): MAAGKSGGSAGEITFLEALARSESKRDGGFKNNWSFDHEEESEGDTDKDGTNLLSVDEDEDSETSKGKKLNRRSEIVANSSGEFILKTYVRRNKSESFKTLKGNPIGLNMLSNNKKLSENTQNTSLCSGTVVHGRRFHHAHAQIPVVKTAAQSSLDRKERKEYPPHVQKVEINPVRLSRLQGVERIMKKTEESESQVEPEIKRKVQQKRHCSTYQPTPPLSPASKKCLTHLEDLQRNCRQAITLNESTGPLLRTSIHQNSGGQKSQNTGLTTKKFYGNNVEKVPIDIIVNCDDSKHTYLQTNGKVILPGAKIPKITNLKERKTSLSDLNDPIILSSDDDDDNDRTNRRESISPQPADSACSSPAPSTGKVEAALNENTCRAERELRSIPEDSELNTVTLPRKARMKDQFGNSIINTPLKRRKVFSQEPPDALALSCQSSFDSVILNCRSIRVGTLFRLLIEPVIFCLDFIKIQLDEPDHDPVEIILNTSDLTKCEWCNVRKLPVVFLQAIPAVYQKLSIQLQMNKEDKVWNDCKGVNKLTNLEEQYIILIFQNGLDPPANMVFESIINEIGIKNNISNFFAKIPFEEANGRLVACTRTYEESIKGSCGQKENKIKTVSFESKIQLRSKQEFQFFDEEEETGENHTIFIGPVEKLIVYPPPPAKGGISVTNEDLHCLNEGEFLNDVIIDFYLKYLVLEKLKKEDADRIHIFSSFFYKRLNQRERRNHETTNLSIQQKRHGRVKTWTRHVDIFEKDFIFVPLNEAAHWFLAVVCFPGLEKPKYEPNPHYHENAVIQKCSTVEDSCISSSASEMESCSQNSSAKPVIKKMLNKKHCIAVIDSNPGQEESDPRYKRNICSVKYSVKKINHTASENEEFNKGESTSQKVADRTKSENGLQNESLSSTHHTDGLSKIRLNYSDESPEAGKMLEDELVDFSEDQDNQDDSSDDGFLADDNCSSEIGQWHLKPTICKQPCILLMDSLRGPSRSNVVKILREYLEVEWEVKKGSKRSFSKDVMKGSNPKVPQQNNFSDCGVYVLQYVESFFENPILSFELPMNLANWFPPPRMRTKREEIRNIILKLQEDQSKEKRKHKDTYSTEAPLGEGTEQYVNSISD

[9] = biological target: T5, Sentrin-specific protease 8 (Homo sapiens, UniProt Q96LD8); type: functional;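 further: luminescence read-out of SENP8 inhibition, dose-response confirmation following an ultra-high-throughput screen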
T5 sequence (Q96LD8 whole entry): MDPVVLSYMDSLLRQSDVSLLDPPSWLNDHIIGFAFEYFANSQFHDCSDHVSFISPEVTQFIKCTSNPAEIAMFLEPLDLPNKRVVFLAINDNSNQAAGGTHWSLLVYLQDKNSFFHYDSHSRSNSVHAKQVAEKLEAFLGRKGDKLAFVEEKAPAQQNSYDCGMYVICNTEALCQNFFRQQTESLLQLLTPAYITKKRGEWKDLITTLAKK

[10] = biological target: Heat shock protein HSP 90-alpha (Homo sapiens, UniProt P07900); type: functional, organism-based
Mucolipin-3 = biological target: T6, Mucolipin-3 (Homo sapiens, UniProt Q8TDD5); assay: Dose response cell-based high-throughput screening assay for agonists of the transient receptor potential channel ML3 (TRPML3). [Related pubchem assays: 1526, 1424, 1448 ]; type: functional
T6 sequence (Q8TDD5 whole entry): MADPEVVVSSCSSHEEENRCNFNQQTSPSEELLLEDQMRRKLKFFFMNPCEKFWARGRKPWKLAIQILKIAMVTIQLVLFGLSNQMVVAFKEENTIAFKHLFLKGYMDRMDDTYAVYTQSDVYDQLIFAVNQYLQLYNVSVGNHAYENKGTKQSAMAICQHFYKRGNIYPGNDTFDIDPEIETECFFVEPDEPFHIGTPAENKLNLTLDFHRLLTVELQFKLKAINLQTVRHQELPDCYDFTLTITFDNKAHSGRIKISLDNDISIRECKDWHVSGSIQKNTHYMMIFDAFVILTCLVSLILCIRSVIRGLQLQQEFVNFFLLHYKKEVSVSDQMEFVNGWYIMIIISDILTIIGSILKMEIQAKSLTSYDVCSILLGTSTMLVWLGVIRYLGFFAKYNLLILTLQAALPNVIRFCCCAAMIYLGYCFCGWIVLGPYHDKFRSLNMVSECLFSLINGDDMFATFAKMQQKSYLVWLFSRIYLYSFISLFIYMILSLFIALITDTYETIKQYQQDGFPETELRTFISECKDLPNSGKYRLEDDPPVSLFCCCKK

Ion channel NompC = Ion channel NompC (Danio rerio, UniProt Q7T1G6); assay: Fluorescence counterscreen assay for TRPML3 agonists: dose response cell-based high-throughput screening assay to identify agonists of the transient receptor potential channel N1 (TRPN1). [Related pubchem assays: 1526, 1424, 1448 ]; type: functional
Chain of Ion channel NompC (Q7T1G6 whole entry): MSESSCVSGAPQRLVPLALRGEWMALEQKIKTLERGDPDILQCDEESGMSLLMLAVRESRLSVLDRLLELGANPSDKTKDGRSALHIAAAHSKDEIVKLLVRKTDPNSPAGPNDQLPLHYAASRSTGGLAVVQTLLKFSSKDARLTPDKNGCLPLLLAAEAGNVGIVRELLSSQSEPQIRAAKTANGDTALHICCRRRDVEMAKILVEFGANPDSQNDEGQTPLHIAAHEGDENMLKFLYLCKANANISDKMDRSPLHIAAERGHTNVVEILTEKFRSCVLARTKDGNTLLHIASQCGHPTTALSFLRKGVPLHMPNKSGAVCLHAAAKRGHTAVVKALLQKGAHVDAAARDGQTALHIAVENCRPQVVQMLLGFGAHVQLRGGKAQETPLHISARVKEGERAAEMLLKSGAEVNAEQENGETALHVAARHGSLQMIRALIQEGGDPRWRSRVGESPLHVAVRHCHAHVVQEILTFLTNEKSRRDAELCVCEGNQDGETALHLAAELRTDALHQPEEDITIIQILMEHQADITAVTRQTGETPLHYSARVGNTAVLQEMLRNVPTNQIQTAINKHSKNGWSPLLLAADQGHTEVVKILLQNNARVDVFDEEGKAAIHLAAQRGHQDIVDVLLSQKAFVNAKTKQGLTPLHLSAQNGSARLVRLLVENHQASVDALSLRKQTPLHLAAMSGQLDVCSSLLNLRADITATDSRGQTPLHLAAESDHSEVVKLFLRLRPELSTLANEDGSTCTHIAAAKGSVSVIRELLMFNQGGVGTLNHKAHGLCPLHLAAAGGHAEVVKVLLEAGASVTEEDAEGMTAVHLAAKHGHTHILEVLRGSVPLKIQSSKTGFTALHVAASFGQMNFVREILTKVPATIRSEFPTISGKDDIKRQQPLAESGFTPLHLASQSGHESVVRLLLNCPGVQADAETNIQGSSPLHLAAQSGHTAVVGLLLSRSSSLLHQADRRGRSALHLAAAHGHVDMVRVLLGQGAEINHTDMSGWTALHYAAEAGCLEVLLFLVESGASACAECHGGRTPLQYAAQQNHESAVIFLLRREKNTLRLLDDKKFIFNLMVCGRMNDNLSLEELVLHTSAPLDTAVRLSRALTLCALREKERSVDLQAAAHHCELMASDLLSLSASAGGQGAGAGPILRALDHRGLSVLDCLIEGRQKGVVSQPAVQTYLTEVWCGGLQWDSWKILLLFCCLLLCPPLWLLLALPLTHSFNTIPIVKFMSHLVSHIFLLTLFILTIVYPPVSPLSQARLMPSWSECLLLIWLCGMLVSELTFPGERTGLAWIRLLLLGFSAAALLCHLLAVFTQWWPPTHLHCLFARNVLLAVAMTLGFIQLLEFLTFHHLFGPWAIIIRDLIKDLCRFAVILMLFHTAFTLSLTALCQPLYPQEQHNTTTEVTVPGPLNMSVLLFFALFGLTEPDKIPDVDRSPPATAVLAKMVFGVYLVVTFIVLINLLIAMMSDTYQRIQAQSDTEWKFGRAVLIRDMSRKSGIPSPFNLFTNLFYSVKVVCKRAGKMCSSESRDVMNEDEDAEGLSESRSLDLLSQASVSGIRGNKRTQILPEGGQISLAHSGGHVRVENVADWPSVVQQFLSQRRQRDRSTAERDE

[11] = A cytotoxicity screen of small molecule inhibitors of the PhoP region in Salmonella typhi identified in the primary screen. [Related pubchem assays: 1850, 1864, 1985 ]; type: functional
cells = type: functional
[12] = biological target: Luciferin 4-monooxygenase (Photinus pyralis, UniProt P08659); assay: inhibition of purified Photinus pyralis luciferase – biochemical, luminescence, dose response (AID 1891)
Chain of Luciferin 4-monooxygenase (P08659 whole entry): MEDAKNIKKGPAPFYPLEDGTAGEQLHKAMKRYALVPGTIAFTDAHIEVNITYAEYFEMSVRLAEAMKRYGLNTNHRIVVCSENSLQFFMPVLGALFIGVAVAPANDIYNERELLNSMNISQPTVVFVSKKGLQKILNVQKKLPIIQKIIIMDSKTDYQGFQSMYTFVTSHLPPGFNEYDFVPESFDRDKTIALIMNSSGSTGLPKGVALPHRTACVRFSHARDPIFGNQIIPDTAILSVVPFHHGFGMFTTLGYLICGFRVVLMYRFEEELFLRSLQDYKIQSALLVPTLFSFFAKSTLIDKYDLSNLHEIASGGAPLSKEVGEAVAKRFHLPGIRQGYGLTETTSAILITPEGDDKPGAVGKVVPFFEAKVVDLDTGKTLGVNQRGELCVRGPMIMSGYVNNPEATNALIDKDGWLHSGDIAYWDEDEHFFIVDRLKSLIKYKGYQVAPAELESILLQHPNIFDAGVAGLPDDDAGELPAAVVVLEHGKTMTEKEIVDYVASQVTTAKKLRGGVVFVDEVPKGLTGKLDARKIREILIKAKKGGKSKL

[13] = Luminescence Cell-Based Dose Confirmation HTS to Identify Inhibitors of Platelet Dense Granule Release. [Related pubchem assays: 1663 (Primary HTS), 1678 (Summary of Project)]; type: functional

Chain of Cytochrome P450 2C9 (P11712 whole entry): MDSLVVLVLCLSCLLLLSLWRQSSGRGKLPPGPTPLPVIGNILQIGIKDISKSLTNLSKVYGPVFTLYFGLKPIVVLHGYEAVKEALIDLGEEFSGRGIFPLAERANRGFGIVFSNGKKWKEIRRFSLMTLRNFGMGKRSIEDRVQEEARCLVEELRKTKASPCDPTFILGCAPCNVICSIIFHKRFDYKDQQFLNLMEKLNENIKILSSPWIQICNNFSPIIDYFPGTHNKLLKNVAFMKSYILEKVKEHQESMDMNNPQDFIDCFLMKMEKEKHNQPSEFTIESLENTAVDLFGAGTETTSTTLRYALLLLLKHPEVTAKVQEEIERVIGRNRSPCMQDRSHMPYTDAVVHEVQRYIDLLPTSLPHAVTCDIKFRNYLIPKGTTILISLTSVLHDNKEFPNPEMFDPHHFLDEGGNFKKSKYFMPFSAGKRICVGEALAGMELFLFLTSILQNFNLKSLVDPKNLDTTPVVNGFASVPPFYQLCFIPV

## COc1cc(O)c2c(=O)cc(-c3ccccc3)oc2c1 [TECHTOCHRYSIN]
HeLa
  AC50: 46.2 µM (active)
Cytochrome P450 2C9
  AC50: 2.51 µM (inconclusive)

## CC(C)C[C@@H](CC(=O)N[C@H](CC(=O)N[C@@H]1CCCC[C@H]1C(=O)N[C@H](CC(=O)N[C@@H](CCC(=O)O)CC(=O)O)Cc1ccccc1)C(C)C)NC(=O)[C@@H]1CCCC[C@H]1N
Cytochrome P450 2C9
  AC50: 39.8 µM (inconclusive)

## [O-][n+]1onc2c1CCC(=N/O)/C2=N\Nc1ccccc1
[1]
  IC50: 4.87 µM (active)

## COc1ccc(O)c(-c2cc(-c3cccc(Br)c3)[nH]n2)c1
[2]
  EC50: 6.53 µM (active)
Streptokinase A
  EC50: > 150 µM (inconclusive)
[3]
  EC50: 8.85 µM (active)
[4]
  EC50: 4.73 µM (active)
[5]
  EC50: 25.4 µM (active)
[6]
  EC50: 16.6 µM (active)
Streptococcus
  EC50: 12.4 µM (active)
Caspase-3
  IC50: 97.7 µM (active)
[7]
  IC50: 11.3 µM (active)
[8]
  IC50: 26.5 µM (active)
[9]
  IC50: 29.1 µM (active)
[10]
  AC50: 8.06 µM (active)

## COC(=O)c1ccc(Cl)cc1N(Cc1c(F)cccc1Cl)S(C)(=O)=O
Mucolipin-3
  EC50: 2.49 µM (active)
Ion channel NompC
  EC50: 6.15 µM (active)

## CCOC(=O)c1cc(-c2ccco2)nc2c1c(C)nn2-c1cccc(Cl)c1
[1]
  IC50: 2.51 µM (active)

## N#Cc1nc(-c2ccc(OCc3ccccc3)cc2)oc1NCCCN1CCOCC1
[3]
  EC50: 13 µM (active)
[4]
  EC50: 13.6 µM (active)

## C=CCOc1ccc(Cl)cc1CNC1CCCC1
[11]
  EC50: > 50 µM (active)

## COc1ccc(-c2noc(CCC(=O)Nc3cccc(C)c3)n2)cc1
[11]
  EC50: > 50 µM (active)
cells
  IC50: 15.9 µM (active)

## Cc1nn(C(C)(C)C)c(OC(=O)C2CCCC2)c1S(=O)(=O)c1ccccc1
Mucolipin-3
  EC50: > 9.99 µM (not active)
Ion channel NompC
  EC50: > 29.9 µM (not active)

## O=C(C1Cc2ccccc2CN1S(=O)(=O)c1ccc(F)cc1)N1CCCCCC1 (stereo unspecified)
Mucolipin-3
  EC50: 3.72 µM (active)
Ion channel NompC
  EC50: > 29.9 µM (not active)

## CCN(CC)S(=O)(=O)c1cc(NC(=O)C2Cc3ccccc3C(=O)O2)ccc1C (stereo unspecified)
[11]
  EC50: > 50 µM (active)
[12]
  EC50: > 112 µM (not active)
[13]
  EC50: > 112 µM (not active)
